Measurements from patent US4120896A, “S-Phenenyltris(sulfonylimino)tri-anionic substituted benzene dicarboxylic acids and substituted alkyl amino acids and their salts” (America Cyanamid Company, priority 1977, dated 1978).
Where “and” joins values, the source holds several entries; their conditions need not be identical. Equal values may be shown once. Where a name gives a salt, the structure may show the parent alone. Read-outs that look alike come from different tables or passages of the source.

Legend:
citrated sheep plasma = assay: In vitro anti-coagulant activity (AC): clotting of recalcified citrated sheep plasma with sheep RBC; type: biochemical; details: for AC Wells: Table I, two-fold serial dilution, higher well number indicates higher activity, sodium heparin positive control; for Anti-coagulant Activity (Wells) AC: Table II, in vitro
Description: The sheep RBC's, kept in suspension throughout the clotting incubation time, become enmeshed in the fibrin matrix if a clot forms. Upon centrifugation of the plate, untrapped RBC's form buttons, the sizes of which correspond to the degree of clot inhibition; this providing a measure of anti-coagulant activity (AC). Sodium heparin is used as a positive control and activity is reported in wells appearing in Table 1.
(§1) **Activity in wells a serial dilution assay. Higher well number indicates
(§2) higher activity. The serial dilutions are two -fold.

complement system = details: literature report; cited from earlier work
[1] = tested on: hereditary angioneurotic edema; details: literature report, New England J. Med. 286, 808-812 (1972); cited from earlier work
shunt pathway = assay: Code 036 (C-Shunt inhibitor) test: lysis of fragile human erythrocytes in autologous serum via shunt pathway activated by cobra venom factor; type: cell-based; details: Table I; two-fold serial dilution, higher well number indicates higher activity
Description: An active inhibitor protects C2 from C1 and C4; (ii) Test, Code 035 (C3-C9 inhibitor) - This test determines the ability of the late components of human complement (C3-C9) to lyse EAC 142 in the presence of appropriate dilutions of the test compound. An active inhibitor protects EAC 142 from lysis by human C3-C9; (iii) Test, Code 036 (C-Shunt inhibitor) - In this test human erythrocytes rendered fragile are lysed in autologous serum via the shunt pathway activated by cobra venom factor in the presence of appropriate dilutions of the test compound. Inhibition of the shunt pathway results in failure of lysis; (iv) Forssman Vasculitis Test - Here, the well known complement dependent lesion, Forssman vasculitis, is produced in guinea pigs by intradermal injection of rabbit anti-Forssman antiserum. […]

[2] = tested on: anti-complement and anti-coagulant activities; assay: Intrinsic Therapeutic Index: separation of anti-complement (Code 026) and anti-coagulant (AC) activities; details: for Intrinsic Therapeutic Index: antilogarithm (base 2) of the difference in wells; for Logarithmic Difference Expressed As Wells: log base 2 difference, Code 026 minus AC
Description: The computation of an Intrinsic Therapeutic Index (ITI) was devised to correlate the results expressed in wells, obtained in the in vitro Code 026 (C1 inhibitor) test and the in vitro anti-coagulant (AC) test into a meaningful value which would aid in the net evaluation of the activity of the compounds of this invention.
The ITI is thus a measure of the separation of anti-complement and anti-coagulant activities; the higher the numerical value the more therapeutically useful the separation of activities.

activated human C1 = activated human C1 (Homo sapiens, UniProt P09871); assay: Code 026 (C1 inhibitor) test: ability of activated human C1 to destroy fluid phase human C2 in presence of C4; type: biochemical; details: for C1 026 Wells: Table I, two-fold serial dilution, higher well number indicates higher activity; for Complement Inhibiting Activity (Wells) Code 026: Table II, in vitro
Description: (§3) An active inhibitor protects C2 from C1 and C4; (ii) Test, Code 035 (C3-C9 inhibitor) - This test determines the ability of the late components of human complement (C3-C9) to lyse EAC 142 in the presence of appropriate dilutions of the test compound. An active inhibitor protects EAC 142 from lysis by human C3-C9; (iii) Test, Code 036 (C-Shunt inhibitor) - In this test human erythrocytes rendered fragile are lysed in autologous serum via the shunt pathway activated by cobra venom factor in the presence of appropriate dilutions of the test compound. Inhibition of the shunt pathway results in failure of lysis; (iv) Forssman Vasculitis Test - Here, the well known complement dependent lesion, Forssman vasculitis, is produced in guinea pigs by intradermal injection of rabbit anti-Forssman antiserum. The lesion is measured in terms of diameter, edema and hemorrhage and the extent to which a combined index of these is inhibited by prior intraperitoneal injection of the test compound at 200 mg/kg is then reported, unless otherwise stated; (v) Forssman Shock Test - Lethal shock is produced in guinea pigs by an i.v. injection of anti-Forssman antiserum and the harmonic mean death time of treated guinea pigs is compared with that of simultaneous controls; (vi) Complement Level Reduction Test -- In this test, the above dosed guinea pigs, or others, are bled for serum and the complement level is determined in undiluted serum by the capillary tube method of U.S. Pat. No. 3,876,376 and compared to undosed control guinea pigs; and (vii) Cap 50 Test -- Here, appropriate amounts of the test compound are added to a pool of guinea pig serum in vitro, after which the undiluted serum capillary tube assay referred to above is run. The concentration of compound inhibiting 50% is reported.
as §1, §2

whole complement = assay: In vivo activity: whole complement level of serum of dosed guinea pigs, capillary tube assay; details: guinea pig; for % Inhibition, Intraperitoneal, 30 min / % Inhibition, Intraperitoneal, 60 min / % Inhibition, Intraperitoneal, 120 min: 200 mg/kg i.p., 200 mg/kg; for inhibition at 200 mg/kg: Cavia porcellus, iv, 200 mg/kg i.v.
Description: as §3
With reference to Table I, guinea pigs weighing about 300 g were dosed intravenously (i.v.) or intraperitoneally (i.p.) with 200 mg/kg of the test compound dissolved in saline and adjusted to pH 7-8. […] The serum was tested for whole complement using the capillary tube assay. Percent inhibition was calculated by comparison with simultaneous controls. The results appear in Table I together with results of tests, code 026, 035, 036, Cap 50, % inhibition and Forssman shock.

[3] = tested on: human serum total hemolytic complement; details: in vitro and in vivo, Pathologie Biologie 25, 33-36 (1977); cited from earlier work

COCCOC(=O)c1cc(NS(=O)(=O)c2cc(S(=O)(=O)Nc3cc(C(=O)OCCOC)cc(C(=O)OCCOC)c3)cc(S(=O)(=O)Nc3cc(C(=O)OCCOC)cc(C(=O)OCCOC)c3)c2)cc(C(=O)OCCOC)c1 [5,5',5"-[s-Phenenyltris(sulfonylimino)]tri-isophthalic acid hexakis(2-methoxyethyl)ester]
AC Wells (citrated sheep plasma): < 0 Wells

COC(=O)c1cc(NS(=O)(=O)c2cc(S(=O)(=O)Nc3cc(C(=O)OC)c(O)c(C(=O)OC)c3)cc(S(=O)(=O)Nc3cc(C(=O)OC)c(O)c(C(=O)OC)c3)c2)cc(C(=O)OC)c1O [5,5',5"-[s-Phenenyltris(sulfonylimino)]tri-2-hydroxy isophthalic acid hexamethyl ester]
AC Wells (citrated sheep plasma): -1 Wells

O=C(O)c1cc(NS(=O)(=O)c2cc(S(=O)(=O)Nc3ccc(O)c(C(=O)O)c3)cc(S(=O)(=O)Nc3ccc(O)c(C(=O)O)c3)c2)ccc1O [5,5',5"-[s-Phenenyltris(sulfonylimino)]trisalicylic acid]
AC Wells (citrated sheep plasma): -2 Wells

Cc1ccc(C(=O)Nc2ccc(S(=O)(=O)O)c3cc(S(=O)(=O)O)cc(S(=O)(=O)O)c23)cc1NC(=O)c1cccc(NC(=O)Nc2cccc(C(=O)Nc3cc(C(=O)Nc4ccc(S(=O)(=O)O)c5cc(S(=O)(=O)O)cc(S(=O)(=O)O)c45)ccc3C)c2)c1 [Suramin]
anticomplementary effect / complement inhibition (complement system): competitive inhibitor of the complement system | success in treatment of hereditary angioneurotic edema [1]: used with success

NC[C@H]1CC[C@H](C(=O)O)CC1 [tranexamic acid]
success in treatment of hereditary angioneurotic edema [1]: used with success

O=C(O)c1cc(NS(=O)(=O)c2cc(S(=O)(=O)Nc3cc(C(=O)O)c(O)c(C(=O)O)c3)cc(S(=O)(=O)Nc3cc(C(=O)O)c(O)c(C(=O)O)c3)c2)cc(C(=O)O)c1O [5,5',5"-[s-Phenenyltris(sulfonylimino)]tri-2-hydroxy-isophthalic acid]
Shunt Inhibition 036 Wells (shunt pathway): +1 Wells | Intrinsic Therapeutic Index [2]: 128 | Logarithmic Difference Expressed As Wells [2]: +7 Wells | C1 026 Wells (activated human C1): +6 Wells | Complement Inhibiting Activity (Wells) Code 026 (activated human C1): +6 Wells | AC Wells (citrated sheep plasma): -1 Wells | Anti-coagulant Activity (Wells) AC (citrated sheep plasma): -1 Wells

O=C(O)c1cc(NS(=O)(=O)c2cc(S(=O)(=O)Nc3cc(C(=O)O)cc(C(=O)O)c3)cc(S(=O)(=O)Nc3cc(C(=O)O)cc(C(=O)O)c3)c2)cc(C(=O)O)c1 [5,5',5"-[s-Phenenyltris(sulfonylimino)]tri-isophthalic acid] [listing 1 of 2 here]
Intrinsic Therapeutic Index [2]: 512 and 256 | % Inhibition, Intraperitoneal, 30 min (whole complement; 30 mins.): -74% | % Inhibition, Intraperitoneal, 60 min (whole complement): -74% | % Inhibition, Intraperitoneal, 120 min (whole complement; 120 mins.): -74%

NCCCCCC(=O)O [epsilon-aminocaproic acid]
success in treatment of hereditary angioneurotic edema [1]: used with success

O=C(O)c1cc(NS(=O)(=O)c2cc(S(=O)(=O)Nc3cc(C(=O)O)cc(C(=O)O)c3)cc(S(=O)(=O)Nc3cc(C(=O)O)cc(C(=O)O)c3)c2)cc(C(=O)O)c1 [5,5',5"-[s-Phenenyltris(sulfonylimino)]tri-isophthalic acid ] [5,5',5"-[s-Phenenyltris(sulfonylimino)]tri-isophthalic acid hexasodium salt, trisodium derivative compound with ethyl alcohol (2:5)]
Intrinsic Therapeutic Index [2]: 64 | Logarithmic Difference Expressed As Wells [2]: +6 Wells | % Inhibition, Intraperitoneal, 30 min (whole complement; 30 mins.): -62% | % Inhibition, Intraperitoneal, 60 min (whole complement): -53% | % Inhibition, Intraperitoneal, 120 min (whole complement; 120 mins.): -49% | C1 026 Wells (activated human C1): +5 Wells | Complement Inhibiting Activity (Wells) Code 026 (activated human C1): +5 Wells | AC Wells (citrated sheep plasma): -1 Wells | Anti-coagulant Activity (Wells) AC (citrated sheep plasma): -1 Wells

heparin
anticomplementary effect / complement inhibition (complement system): anticomplementary effect

pentosan-poly-sulfoester
anticomplementary activity, reduction in total hemolytic complement activity [3]: anticomplementary activity on human serum both in vitro and in vivo

O=C(O)c1cc(NS(=O)(=O)c2cc(S(=O)(=O)Nc3cc(C(=O)O)cc(C(=O)O)c3)cc(S(=O)(=O)Nc3cc(C(=O)O)cc(C(=O)O)c3)c2)cc(C(=O)O)c1 [5,5',5"-[s-Phenenyltris(sulfonylimino)]tri-isophthalic acid] [listing 2 of 2 here]
inhibition at 200 mg/kg (whole complement; 2 min, 2 mins., read-out: % Inhibition, Intravenous, 2 min): -88% | inhibition at 200 mg/kg (whole complement; 0.5 h, 30 mins., read-out: % Inhibition, Intravenous, 30 min): -66% | inhibition at 200 mg/kg (whole complement; 2 h, 120 mins., read-out: % Inhibition, Intravenous, 120 min): -53%

Nc1ccc2cc(S(=O)(=O)O)cc(O)c2c1N=Nc1ccc(NC(=O)Nc2ccc(N=Nc3c(N)ccc4cc(S(=O)(=O)O)cc(O)c34)c(S(=O)(=O)O)c2)cc1S(=O)(=O)O [chlorazol fast pink, 3,3'-ureylenebis-[6-(2-amino-8-hydroxy-6-sulfo-1-naphthylazo)]benzenesulfonic acid, tetrasodium salt]
anticomplementary effect / complement inhibition (complement system): anticomplementary effect

COC(=O)c1cc(NS(=O)(=O)c2cc(S(=O)(=O)Nc3ccc(O)c(C(=O)OC)c3)cc(S(=O)(=O)Nc3ccc(O)c(C(=O)OC)c3)c2)ccc1O [5,5',5"-[s-Phenenyltris(sulfonylimino)]trisalicyclic acid trimethyl ester]
AC Wells (citrated sheep plasma): ≤ +1 Wells
